Measurements: patent US20220119354A1, “DIAMINO-SUBSTITUTED PYRIDINES AND PYRIMIDINES AS HERBICIDES” (FMC Corporation, priority 2019, published 2022)

Legend:
Format in all cases: in vivo
rice (Oryza sativa) = assay: Test B flooded paddy test, rice; settings: Flood, 250 g ai/ha, applied to paddy water, 2-leaf stage, visual evaluation after 13 to 15 d
In short: (§1)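 Visual injury scores run from 0 (no effect) to 100 (complete control), assigned by comparison with controls 13 to 15 d after treatment. Treatment went into floodwater standing 3 cm over the soil of pots holding 2-leaf plants.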

[1] = system: sedge, umbrella (small-flower umbrella sedge, Cyperus difformis); assay: Test B flooded paddy test, umbrella sedge; settings: Flood, 250 g ai/ha, applied to paddy water, 2-leaf stage, visual evaluation after 13 to 15 d
In short: as §1

[2] = system: barnyardgrass (Echinochloa crus-galli); assay: Test B flooded paddy test, barnyardgrass; settings: Flood, 250 g ai/ha, applied to paddy water, 2-leaf stage, visual evaluation after 13 to 15 d
In short: as §1

[3] = system: ducksalad (Heteranthera limosa); assay: Test B flooded paddy test, ducksalad; settings: Flood, 250 g ai/ha, applied to paddy water, 2-leaf stage, visual evaluation after 13 to 15 d
In short: as §1

kochia (Kochia scoparia) [4] = assay: Test A preemergence, kochia; settings: 0 to 100 scale
In short: (§2)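 Visual injury scored against untreated controls about 10 d after treatment, scale 0 = no effect to 100 = complete control. Compounds, formulated with surfactant in a non-phytotoxic solvent, went on as directed soil spray preemergence or onto 2–10 cm, one- to two-leaf plants postemergence; loam–sand soil, greenhouse.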

kochia (Kochia scoparia) [5] = assay: Test A postemergence, kochia; settings: 0 to 100 scale
In short: as §2

[6] = system: barnyardgrass (Echinochloa crus-galli); assay: Test A preemergence, barnyardgrass; settings: 0 to 100 scale
In short: as §2

[7] = system: ryegrass, Italian (Lolium multiflorum); assay: Test A postemergence, Italian ryegrass; settings: 0 to 100 scale
In short: as §2

[8] = system: foxtail, giant (Setaria faberii); assay: Test A postemergence, giant foxtail; settings: 0 to 100 scale
In short: as §2

corn (Zea mays) = assay: Test A postemergence, corn; settings: 0 to 100 scale
In short: as §2

[9] = system: blackgrass (Alopecurus myosuroides); assay: Test A postemergence, blackgrass; settings: 0 to 100 scale
In short: as §2

[10] = system: pigweed (Amaranthus retroflexus); assay: Test A preemergence, pigweed; settings: 0 to 100 scale
In short: as §2

[11] = system: ryegrass, Italian (Lolium multiflorum); assay: Test A preemergence, Italian ryegrass; settings: 0 to 100 scale
In short: as §2

[12] = system: galium (catchweed bedstraw, Galium aparine); assay: Test A postemergence, galium; settings: 0 to 100 scale
In short: as §2

[13] = system: ragweed (common ragweed, Ambrosia elatior); assay: Test A postemergence, ragweed; settings: 0 to 100 scale
In short: as §2

[14] = system: barnyardgrass (Echinochloa crus-galli); assay: Test A postemergence, barnyardgrass; settings: 0 to 100 scale
In short: as §2

[15] = system: foxtail, giant (Setaria faberii); assay: Test A preemergence, giant foxtail; settings: 0 to 100 scale
In short: as §2

[16] = system: ragweed (common ragweed, Ambrosia elatior); assay: Test A preemergence, ragweed; settings: 0 to 100 scale
In short: as §2

[17] = system: pigweed (Amaranthus retroflexus); assay: Test A postemergence, pigweed; settings: 0 to 100 scale
In short: as §2

[18] = system: wheat (Triticum aestivum); assay: Test A postemergence, wheat; settings: 0 to 100 scale
In short: as §2

C[C@@H](Nc1ncc(C(F)(F)F)c(N)n1)c1cc2cc(Cl)ccc2o1 [Compound 2]
10: Plant response rating, Pigweed ([10]; 125 g ai/ha) | Plant response rating, Barnyardgrass ([14]; 500 g ai/ha)
30: Plant response rating, Galium ([12]; 500 g ai/ha)
20: Plant response rating, Pigweed ([10]; 500 g ai/ha) | Plant response rating, Ragweed ([13]; 500 g ai/ha)
0: Plant response rating, Rice (0 to 100 scale, 0 is no effect, 100 is complete control) (rice (Oryza sativa)) | Plant response rating, Sedge, Umbrella (0 to 100 scale, 0 is no effect, 100 is complete control) [1] | Plant response rating, Barnyardgrass (0 to 100 scale, 0 is no effect, 100 is complete control) [2] | Plant response rating, Ducksalad (0 to 100 scale, 0 is no effect, 100 is complete control) [3] | Plant response rating, Kochia (kochia (Kochia scoparia) [4]; 125 g ai/ha) | Plant response rating, Kochia (kochia (Kochia scoparia) [4]; 500 g ai/ha) | Plant response rating, Kochia (kochia (Kochia scoparia) [5]; 125 g ai/ha) | Plant response rating, Kochia (kochia (Kochia scoparia) [5]; 500 g ai/ha) | Plant response rating, Barnyardgrass ([6]; 125 g ai/ha) | Plant response rating, Barnyardgrass ([6]; 500 g ai/ha) | Plant response rating, Ryegrass, Italian ([7]; 125 g ai/ha) | Plant response rating, Ryegrass, Italian ([7]; 500 g ai/ha) | Plant response rating, Foxtail, Giant ([8]; 125 g ai/ha) | Plant response rating, Foxtail, Giant ([8]; 500 g ai/ha) | Plant response rating, Corn (corn (Zea mays); 125 g ai/ha) | Plant response rating, Corn (corn (Zea mays); 500 g ai/ha) | Plant response rating, Blackgrass ([9]; 125 g ai/ha) | Plant response rating, Blackgrass ([9]; 500 g ai/ha) | Plant response rating, Ryegrass, Italian ([11]; 125 g ai/ha) | Plant response rating, Ryegrass, Italian ([11]; 500 g ai/ha) | Plant response rating, Galium ([12]; 125 g ai/ha) | Plant response rating, Ragweed ([13]; 125 g ai/ha) | Plant response rating, Barnyardgrass ([14]; 125 g ai/ha) | Plant response rating, Foxtail, Giant ([15]; 125 g ai/ha) | Plant response rating, Foxtail, Giant ([15]; 500 g ai/ha) | Plant response rating, Ragweed ([16]; 125 g ai/ha) | Plant response rating, Ragweed ([16]; 500 g ai/ha) | Plant response rating, Wheat ([18]; 125 g ai/ha) | Plant response rating, Wheat ([18]; 500 g ai/ha)
40: Plant response rating, Pigweed ([17]; 125 g ai/ha)
90: Plant response rating, Pigweed ([17]; 500 g ai/ha)

C[C@@H](Nc1ncc(C(F)(F)F)c(N)n1)c1cccc2ccccc12 [Compound 3]
30: Plant response rating, Ducksalad (0 to 100 scale, 0 is no effect, 100 is complete control) [3] | Plant response rating, Kochia (kochia (Kochia scoparia) [4]; 125 g ai/ha) | Plant response rating, Kochia (kochia (Kochia scoparia) [5]; 125 g ai/ha) | Plant response rating, Blackgrass ([9]; 500 g ai/ha) | Plant response rating, Galium ([12]; 125 g ai/ha) | Plant response rating, Ragweed ([13]; 125 g ai/ha)
10: Plant response rating, Barnyardgrass ([6]; 125 g ai/ha) | Plant response rating, Corn (corn (Zea mays); 500 g ai/ha) | Plant response rating, Foxtail, Giant ([15]; 125 g ai/ha)
65: Plant response rating, Sedge, Umbrella (0 to 100 scale, 0 is no effect, 100 is complete control) [1]
80: Plant response rating, Barnyardgrass ([14]; 500 g ai/ha)
20: Plant response rating, Ryegrass, Italian ([11]; 125 g ai/ha) | Plant response rating, Barnyardgrass ([14]; 125 g ai/ha) | Plant response rating, Wheat ([18]; 125 g ai/ha)
40: Plant response rating, Foxtail, Giant ([8]; 500 g ai/ha)
90: Plant response rating, Kochia (kochia (Kochia scoparia) [5]; 500 g ai/ha) | Plant response rating, Ryegrass, Italian ([11]; 500 g ai/ha) | Plant response rating, Galium ([12]; 500 g ai/ha) | Plant response rating, Ragweed ([13]; 500 g ai/ha) | Plant response rating, Foxtail, Giant ([15]; 500 g ai/ha) | Plant response rating, Pigweed ([17]; 125 g ai/ha)
0: Plant response rating, Rice (0 to 100 scale, 0 is no effect, 100 is complete control) (rice (Oryza sativa)) | Plant response rating, Barnyardgrass (0 to 100 scale, 0 is no effect, 100 is complete control) [2] | Plant response rating, Ryegrass, Italian ([7]; 125 g ai/ha) | Plant response rating, Ryegrass, Italian ([7]; 500 g ai/ha) | Plant response rating, Foxtail, Giant ([8]; 125 g ai/ha) | Plant response rating, Corn (corn (Zea mays); 125 g ai/ha) | Plant response rating, Blackgrass ([9]; 125 g ai/ha) | Plant response rating, Wheat ([18]; 500 g ai/ha)
100: Plant response rating, Kochia (kochia (Kochia scoparia) [4]; 500 g ai/ha) | Plant response rating, Barnyardgrass ([6]; 500 g ai/ha) | Plant response rating, Pigweed ([10]; 125 g ai/ha) | Plant response rating, Pigweed ([10]; 500 g ai/ha) | Plant response rating, Ragweed ([16]; 125 g ai/ha) | Plant response rating, Ragweed ([16]; 500 g ai/ha) | Plant response rating, Pigweed ([17]; 500 g ai/ha)

C[C@@H](Nc1ncc(C(F)(F)F)c(N)n1)c1cc2ccccc2s1 [Compound 4, N2-[(1R)-1-benzo[b]thien-2-ylethyl]-5-(trifluoromethyl)-2,4-pyrimidinediamine]
70%: pest or weed control at 500 g/ha ([8]; Setaria faberi, post-emergence, 240 h, 500 g ai/ha, read-out: Plant response rating, Foxtail, Giant)
60%: pest or weed control at 500 g/ha ([9]; Alopecurus myosuroides, post-emergence, 240 h, 500 g ai/ha, read-out: Plant response rating, Blackgrass) | pest or weed control at 500 g/ha ([14]; Echinochloa crus-galli, post-emergence, 240 h, 500 g ai/ha, read-out: Plant response rating, Barnyardgrass)
90: Plant response rating, Barnyardgrass ([6]; 125 g ai/ha) | Plant response rating, Ryegrass, Italian ([11]; 500 g ai/ha) | Plant response rating, Foxtail, Giant ([15]; 125 g ai/ha)
20%: pest or weed control at 500 g/ha ([7]; Lolium multiflorum, post-emergence, 240 h, 500 g ai/ha, read-out: Plant response rating, Ryegrass, Italian) | pest or weed control at 125 g/ha ([14]; Echinochloa crus-galli, post-emergence, 240 h, 125 g ai/ha, read-out: Plant response rating, Barnyardgrass)
80: Plant response rating, Ryegrass, Italian ([11]; 125 g ai/ha)
100: Plant response rating, Kochia (kochia (Kochia scoparia) [4]; 125 g ai/ha) | Plant response rating, Kochia (kochia (Kochia scoparia) [4]; 500 g ai/ha) | Plant response rating, Barnyardgrass ([6]; 500 g ai/ha) | Plant response rating, Pigweed ([10]; 125 g ai/ha) | Plant response rating, Pigweed ([10]; 500 g ai/ha) | Plant response rating, Foxtail, Giant ([15]; 500 g ai/ha) | Plant response rating, Ragweed ([16]; 125 g ai/ha) | Plant response rating, Ragweed ([16]; 500 g ai/ha)
95%: pest or weed control at 250 g/ha ([2]; Echinochloa crus-galli, 360 h, read-out: Plant response rating, Barnyardgrass (0 to 100 scale, 0 is no effect, 100 is complete control))
30%: pest or weed control at 125 g/ha ([8]; Setaria faberi, post-emergence, 240 h, 125 g ai/ha, read-out: Plant response rating, Foxtail, Giant) | Corn plant response rating (crop injury, 0 = no effect, 100 = complete kill) at 500 g/ha (corn (Zea mays); Zea mays, post-emergence, 240 h, 500 g ai/ha)
0%: plant injury at 250 g/ha (rice (Oryza sativa); Oryza sativa, 360 h, read-out: Plant response rating, Rice (0 to 100 scale, 0 is no effect, 100 is complete control)) | pest or weed control at 125 g/ha ([7]; Lolium multiflorum, post-emergence, 240 h, 125 g ai/ha, read-out: Plant response rating, Ryegrass, Italian) | Corn plant response rating (crop injury, 0 = no effect, 100 = complete kill) at 125 g/ha (corn (Zea mays); Zea mays, post-emergence, 240 h, 125 g ai/ha) | pest or weed control at 125 g/ha ([9]; Alopecurus myosuroides, post-emergence, 240 h, 125 g ai/ha, read-out: Plant response rating, Blackgrass) | plant injury at 125 g/ha ([18]; Triticum aestivum, post-emergence, 240 h, 125 g ai/ha, read-out: Plant response rating, Wheat) | plant injury at 500 g/ha ([18]; Triticum aestivum, post-emergence, 240 h, 500 g ai/ha, read-out: Plant response rating, Wheat)
90%: pest or weed control at 125 g/ha (kochia (Kochia scoparia) [5]; Bassia scoparia, post-emergence, 240 h, 125 g ai/ha, read-out: Plant response rating, Kochia)
80%: pest or weed control at 125 g/ha ([12]; Galium, post-emergence, 240 h, 125 g ai/ha, read-out: Plant response rating, Galium) | pest or weed control at 500 g/ha ([12]; Galium, post-emergence, 240 h, 500 g ai/ha, read-out: Plant response rating, Galium) | pest or weed control at 125 g/ha ([13]; Ambrosia artemisiifolia, post-emergence, 240 h, 125 g ai/ha, read-out: Plant response rating, Ragweed)
100%: pest or weed control at 250 g/ha ([1]; Cyperus difformis, 360 h, read-out: Plant response rating, Sedge, Umbrella (0 to 100 scale, 0 is no effect, 100 is complete control)) | pest or weed control at 500 g/ha (kochia (Kochia scoparia) [5]; Bassia scoparia, post-emergence, 240 h, 500 g ai/ha, read-out: Plant response rating, Kochia) | pest or weed control at 500 g/ha ([13]; Ambrosia artemisiifolia, post-emergence, 240 h, 500 g ai/ha, read-out: Plant response rating, Ragweed) | pest or weed control at 125 g/ha ([17]; Amaranthus retroflexus, post-emergence, 240 h, 125 g ai/ha, read-out: Plant response rating, Pigweed) | pest or weed control at 500 g/ha ([17]; Amaranthus retroflexus, post-emergence, 240 h, 500 g ai/ha, read-out: Plant response rating, Pigweed)
45%: pest or weed control at 250 g/ha ([3]; Heteranthera limosa, 360 h, read-out: Plant response rating, Ducksalad (0 to 100 scale, 0 is no effect, 100 is complete control))
